Source: BindingDB's records for doi:10.1080/14756360290019944 (University of Porto-Rua Anibal Cunha, 2002)

Target: Xanthine dehydrogenase/oxidase (Homo sapiens, UniProt P47989)
Experiment: Inhibition Assay
Conditions: pH 7.8; 25 °C
Protocol: The effect of 2-styrylchromone 1-3 on xanthine oxidase activity was evaluated by measuring the formation of uric acid from xanthine in a double beam spectrophotometer (Shimadzu 2600) at room temperature.

Chain of Xanthine dehydrogenase/oxidase (P47989 whole entry): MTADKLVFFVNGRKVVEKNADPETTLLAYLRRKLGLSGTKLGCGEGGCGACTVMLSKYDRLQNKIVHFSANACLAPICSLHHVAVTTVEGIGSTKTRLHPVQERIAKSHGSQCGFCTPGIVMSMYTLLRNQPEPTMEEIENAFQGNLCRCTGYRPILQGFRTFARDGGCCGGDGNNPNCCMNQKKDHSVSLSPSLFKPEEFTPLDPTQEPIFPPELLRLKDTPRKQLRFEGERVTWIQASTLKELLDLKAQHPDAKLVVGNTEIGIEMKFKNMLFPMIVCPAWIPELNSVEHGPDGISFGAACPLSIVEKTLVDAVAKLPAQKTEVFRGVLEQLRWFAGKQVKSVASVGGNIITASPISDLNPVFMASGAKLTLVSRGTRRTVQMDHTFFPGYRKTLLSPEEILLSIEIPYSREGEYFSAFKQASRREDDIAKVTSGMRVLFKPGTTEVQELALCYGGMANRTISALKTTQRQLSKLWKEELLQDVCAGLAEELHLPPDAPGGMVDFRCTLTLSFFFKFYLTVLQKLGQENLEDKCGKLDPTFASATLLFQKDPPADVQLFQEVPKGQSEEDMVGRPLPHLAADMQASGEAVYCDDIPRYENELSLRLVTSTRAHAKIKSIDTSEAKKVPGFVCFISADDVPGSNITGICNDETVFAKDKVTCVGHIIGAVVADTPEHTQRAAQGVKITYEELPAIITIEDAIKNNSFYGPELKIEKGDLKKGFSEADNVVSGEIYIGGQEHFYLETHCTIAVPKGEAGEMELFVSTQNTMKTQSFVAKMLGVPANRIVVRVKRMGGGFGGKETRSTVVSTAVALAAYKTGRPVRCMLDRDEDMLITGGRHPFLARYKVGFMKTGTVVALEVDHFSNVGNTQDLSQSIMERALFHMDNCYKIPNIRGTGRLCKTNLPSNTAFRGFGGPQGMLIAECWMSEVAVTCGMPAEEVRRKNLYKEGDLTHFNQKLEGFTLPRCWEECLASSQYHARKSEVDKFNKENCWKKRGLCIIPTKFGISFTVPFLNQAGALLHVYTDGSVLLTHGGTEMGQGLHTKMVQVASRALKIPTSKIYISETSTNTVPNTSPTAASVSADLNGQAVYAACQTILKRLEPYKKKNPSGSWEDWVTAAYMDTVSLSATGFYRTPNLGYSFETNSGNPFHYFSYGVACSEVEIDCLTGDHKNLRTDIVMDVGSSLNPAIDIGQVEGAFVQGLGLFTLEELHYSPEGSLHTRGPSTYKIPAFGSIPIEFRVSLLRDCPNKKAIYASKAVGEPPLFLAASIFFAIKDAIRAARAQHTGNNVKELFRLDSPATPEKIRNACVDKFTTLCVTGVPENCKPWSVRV

Compound	IC50 [µM]
O=c1cccc2oc(C=Cc3ccccc3)cc(O)c1-2 [2-Styrylchromone derivate, 1b]	52.1
O=c1cc(/C=C/c2ccccc2)oc2cc(O)ccc12 [2-Styrylchromone derivate, 1c]	17
O=c1cc(/C=C/c2ccccc2)oc2ccccc12	> 100
O=c1cc(C=Cc2ccccc2)oc2cc(O)cc(O)c12 [2-Styrylchromone derivate, 1d]	2.52
O=c1cccc2oc(C=Cc3ccc(O)cc3)cc(O)c1-2 [2-Styrylchromone derivate, 2a]	77.4

Next, values leading:

IC50 [µM]	Compound
0.55	O=c1cc(O)cc2oc(C=Cc3ccc(O)c(O)c3)cc(O)c1-2 [2-Styrylchromone derivate, 3c]
2.03	O=c1cc(/C=C/c2ccc(O)c(O)c2)oc2cc(O)ccc12 [2-Styrylchromone derivate, 3b]
9.46	O=c1cc(C=Cc2ccc(O)cc2)oc2cc(O)cc(O)c12 [2-Styrylchromone derivate, 2c]
19.6	O=c1cc(/C=C/c2ccc(O)cc2)oc2cc(O)ccc12 [2-Styrylchromone derivate, 2b]
4.36	O=c1cccc2oc(C=Cc3ccc(O)c(O)c3)cc(O)c1-2 [2-Styrylchromone derivate, 3a]
